Results published in ChEMBL document CHEMBL4385609, “Anti-tubulin agents of natural origin: Targeting taxol, vinca, and colchicine binding domains” (Eur J Med Chem, 2019).
Converted amounts (≈) assume the structure as drawn. One block for each compound: values may come before it.

Assays:
A549 [1] = experiment: Antiproliferative activity against human A549 cells assessed as reduction in cell growth incubated for 24 hrs by MTT assay; assay type: functional, cell-based; conditions: A549, 24 h
A-375 = experiment: Antiproliferative activity against human A375 cells assessed as reduction in cell growth incubated for 24 hrs by MTT assay; assay type: functional, cell-based; conditions: A-375, 24 h
[2] = Potency index, ratio of paclitaxel IC50 to laulimalide IC50 for cytotoxicity against human SKVLB-1 cells; assay type: functional
HeLa [3] = experiment: Antiproliferative activity against human HeLa cells assessed as reduction in cell growth; assay type: functional, cell-based
[4] = Antiproliferative activity against mouse EMT6/AR1 cells assessed as reduction in cell growth; assay type: functional, cell-based
MDA-MB-231 = experiment: Antiproliferative activity against human MDA-MB-231 cells assessed as reduction in cell growth; assay type: functional, cell-based
MCF7 = experiment: Antiproliferative activity against human MCF7 cells assessed as reduction in cell growth; assay type: functional, cell-based
CA46 = experiment: Cytotoxicity against human CA46 cells assessed as inhibition of tubulin polymerization after 36 hrs; assay type: functional, cell-based; conditions: CA46, 36 h
A549 [5] = experiment: Antiproliferative activity against human A549 cells assessed as reduction in cell growth; assay type: functional, cell-based
SKM-1 = experiment: Antiproliferative activity against human SKM1 cells assessed as reduction in cell growth; assay type: functional, cell-based
U-937 = experiment: Antiproliferative activity against human U937 cells assessed as reduction in cell growth; assay type: functional, cell-based
[6] = Antiproliferative activity against human MEL28 cells assessed as reduction in cell growth; assay type: functional, cell-based; conditions: SK-MEL-28
P388 [7] = experiment: Antiproliferative activity against mouse P388 cells assessed as reduction in cell growth; assay type: functional, cell-based
HT-29 = experiment: Antiproliferative activity against human HT-29 cells assessed as reduction in cell growth; assay type: functional, cell-based
BGC-823 = experiment: Antiproliferative activity against human BGC823 cells assessed as reduction in cell growth incubated for 24 hrs by MTT assay; assay type: functional, cell-based; conditions: BGC-823, 24 h
Tubulin = experiment: Inhibition of tubulin polymerization (unknown origin); assay type: protein-complex assay, Homo sapiens
[8] = Antiproliferative activity against human MCF cells assessed as reduction in cell growth incubated for 48 hrs by MTT assay; assay type: functional, cell-based
HeLa [9] = experiment: Antiproliferative activity against human HeLa cells assessed as reduction in cell growth incubated for 48 hrs by MTT assay; assay type: functional, cell-based
A549 [10] = experiment: Antiproliferative activity against human A549 cells assessed as reduction in cell growth incubated for 48 hrs by MTT assay; assay type: functional, cell-based; conditions: A549, 48 h
[11] = Antiproliferative activity against human […] cells assessed as reduction in cell growth incubated for 48 hrs by MTT assay; assay type: functional, cell-based
K562 = experiment: Antiproliferative activity against human K562 cells assessed as reduction in cell growth incubated for 48 hrs by MTT assay; assay type: functional, cell-based; conditions: K562, 48 h
WiDr = experiment: Antiproliferative activity against human WiDr cells assessed as reduction in cell growth incubated for 48 hrs by MTT assay; assay type: functional, cell-based
P388 [12] = experiment: Antiproliferative activity against mouse P388 cells assessed as reduction in cell growth incubated for 48 hrs by MTT assay; assay type: functional, cell-based; conditions: P388, 48 h
[13] = Cytotoxicity against mouse tsFT210 cells; assay type: functional
Bos taurus = species: Bos taurus; experiment: Inhibition of bovine brain microtubule assembly at 250 uM by turbidimetric assay relative to control

IC50 (A549 [1]): 36500 nM | IC50 (A-375): 22500 nM
SMILES: CC[C@@]1(C)Oc2cc(c([S+]([O-])CCCCCO)cc2O)[C@@H](O)[C@H](NC)C(=O)N[C@@H](C(C)C)C(=O)NC1C(=O)NCC(=O)O (some centres undefined)

SMILES: C=C1C[C@H](C)C[C@@H]2CC=C[C@@H](C/C=C\C(=O)O[C@H]([C@@H](O)/C=C/[C@@H]3CC(C)=CCO3)C[C@@H]3O[C@H]3[C@@H](O)C1)O2 [FIJIANOLIDE B]
Ratio IC50 [2]: 100

SMILES: COc1cc2cc(c1Cl)N(C)C(=O)C[C@H](OC(=O)C(C)C)[C@]1(C)O[C@@H]1[C@H](C)[C@@H]1C[C@@](O)(NC(=O)O1)[C@H](OC)/C=C/C=C(\C)C2 [ANSAMITOCIN P3]
IC50 (HeLa [3]): 5.06 nM | IC50 [4]: 141 nM | IC50 (MDA-MB-231): 15.1 nM | IC50 (MCF7): 2.06 nM

SMILES: COc1ccc(-c2oc3cc(O)c(OC)c(O)c3c(=O)c2OC)cc1O [CENTAUREIDIN]
IC50 (CA46): 2000 nM

SMILES: C=C1C[C@@H]2C/C=C/C(=O)C/C(C)=C\C=C\C(=O)O[C@H]([C@H](O)NC(=O)/C=C\C=C\C)C/C(C)=C/[C@H](C1)O2 [ZAMPANOLIDE]
IC50 (A549 [5]): 1 to 5 ng/mL (≈ 2.02 to 10.1 nM) | IC50 (SKM-1): 1.1 nM | IC50 (U-937): 2.9 nM | IC50 [6]: 1 to 5 ng/mL (≈ 2.02 to 10.1 nM) | IC50 (P388 [7]): 1 to 5 ng/mL (≈ 2.02 to 10.1 nM) | IC50 (HT-29): 1 to 5 ng/mL (≈ 2.02 to 10.1 nM)

SMILES: CC[C@@]1(C)Oc2cc(c([S+]([O-])C[C@@H](O)C[C@H](N)C(=O)O)cc2O)[C@@H](O)[C@H](NC)C(=O)N[C@@H](C)C(=O)NC1C(=O)NCC(=O)O (some centres undefined)
IC50 (BGC-823): 1030 nM

IC50 (MCF7): 30 nM
SMILES: C=CCC1(CC/C(C)=C/C=C/CC/C=C\[C@]2(C)CSC([C@@H]3C[C@@H]3C)=N2)OCCO1

SMILES: CC(C)(C)c1[nH]cnc1/C=c1\[nH]c(=O)/c(=C/c2cc(F)ccc2F)[nH]c1=O
IC50 (Tubulin): 2.6 nM

IC50 (HeLa [9]): 180 to 330 nM | IC50 (A549 [10]): 180 to 330 nM | IC50 (K562): 180 to 330 nM | IC50 (P388 [12]): 180 to 330 nM
SMILES: C=CC(C)(C)c1[nH]cnc1/C=C1\NC(=O)[C@H](Cc2ccccc2)NC1=O
IC50 [8]: 180 to 330 nM | IC50 [11]: 180 to 330 nM | IC50 (WiDr): 180 to 330 nM

IC50 (MDA-MB-231): 120 nM
SMILES: COc1cc(/C=N/OC/C=C/C=C(\C)CCC(O)c2cccs2)cc(OC)c1OC (centres undefined)

SMILES: CC(C)=CCc1[nH]c2ccccc2c1C[C@@H]1NC(=O)[C@@H]2CCCN2C1=O [TRYPROSTATIN B]
MIC [13]: 4.4 µM (≈ 1.55 µg/mL)

IC50 (Tubulin): 1400 nM
SMILES: CC(C)(C)c1[nH]cnc1/C=c1\[nH]c(=O)/c(=C/C(=O)c2ccccc2)[nH]c1=O

SMILES: COc1ccc2c(C[C@@H]3NC(=O)[C@@H]4CCCN4C3=O)c(CC=C(C)C)[nH]c2c1 [TRYPROSTATIN A]
inhibition (Bos taurus): 40% | MIC [13]: 16.4 µM (≈ 6.26 µg/mL)
